Patent publication US6914045B2, “Glycopeptide antibiotics” (Wyeth Holdings Corporation, priority 2001, dated 2005)
≈ marks a conversion by molar mass, not a printed value.

How the values were obtained:
Assay in all cases: in vitro antibacterial evaluation, MIC by broth dilution
Assay type in all cases: cell-based
Enterococcus sp. = conditions: broth dilution, 18 hours at 35° C.
Outline: (§1)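 MIC, the lowest antibiotic concentration preventing growth, was read across 64-0.06 μg/mL with 5×10^5 CFU/mL inoculum. Method followed NCCLS M7-A2 broth dilution using Mueller-Hinton II; Gram-positive strains covered recent methicillin-, penicillin- and/or vancomycin-resistant clinical isolates.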

Staphylococcus sp. = conditions: broth dilution, 18 hours at 35° C.
Outline: as §1

Streptococcus sp. = conditions: broth dilution, 18 hours at 35° C.
Outline: as §1

Escherichia coli = conditions: 18 hours at 35° C.
Outline: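 MIC is the lowest antibiotic concentration (tested 64-0.06 μg/mL) preventing growth of a 5×10^5 CFU/mL inoculum. Determined by broth dilution in Mueller-Hinton II medium following NCCLS standard M7-A2.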

MIC Enterococcus avium (GC 4558) (Enterococcus sp.; Enterococcus avium (GC 4558)): 8 µg/mL (≈ 5.29 µM) | MIC Enterococcus faecalis (ATCC 29212) (Enterococcus sp.; Enterococcus faecalis (ATCC 29212)): 8 µg/mL (≈ 5.29 µM) | MIC Enterococcus faecalis (GC 4552) (Enterococcus sp.; Enterococcus faecalis (GC 4552)): 8 µg/mL (≈ 5.29 µM) | MIC Enterococcus faecalis (GC 4553) (Enterococcus sp.; Enterococcus faecalis (GC 4553)): 8 µg/mL (≈ 5.29 µM) | MIC Enterococcus faecalis (GC 4554) (Enterococcus sp.; Enterococcus faecalis (GC 4554)): 16 µg/mL (≈ 10.6 µM) | MIC Enterococcus faecalis (GC 6189) (Enterococcus sp.; Enterococcus faecalis (GC 6189)): 8 µg/mL (≈ 5.29 µM) | MIC Enterococcus faecium (GC 2243) (Enterococcus sp.; Enterococcus faecium (GC 2243)): 4 µg/mL (≈ 2.65 µM) | MIC Enterococcus faecium (GC 4556) (Enterococcus sp.; Enterococcus faecium (GC 4556)): 8 µg/mL (≈ 5.29 µM) | MIC Enterococcus faecium (GC 4557) (Enterococcus sp.; Enterococcus faecium (GC 4557)): 1 µg/mL (≈ 0.662 µM) | MIC Enterococcus avium (GC 4558) (Enterococcus sp.): 8 µg/mL (≈ 5.29 µM) | MIC Enterococcus faecalis (ATCC 29212) (Enterococcus sp.): 8 µg/mL (≈ 5.29 µM) | MIC Enterococcus faecalis (GC 2242) (Enterococcus sp.): 8 µg/mL (≈ 5.29 µM) | MIC Enterococcus faecalis (GC 2691) (Enterococcus sp.): 8 µg/mL (≈ 5.29 µM) | MIC Enterococcus faecalis (GC 3059) (Enterococcus sp.): 8 µg/mL (≈ 5.29 µM) | MIC Enterococcus faecalis (GC 4552) (Enterococcus sp.): 8 µg/mL (≈ 5.29 µM) | MIC Enterococcus faecalis (GC 4553) (Enterococcus sp.): 8 µg/mL (≈ 5.29 µM) | MIC Enterococcus faecalis (GC 4554) (Enterococcus sp.): 16 µg/mL (≈ 10.6 µM) | MIC Enterococcus faecalis (GC 6189) (Enterococcus sp.): 8 µg/mL (≈ 5.29 µM) | MIC Enterococcus faecium (GC 2243) (Enterococcus sp.): 4 µg/mL (≈ 2.65 µM) | MIC Enterococcus faecium (GC 4556) (Enterococcus sp.): 8 µg/mL (≈ 5.29 µM) | MIC Enterococcus faecium (GC 4557) (Enterococcus sp.): 1 µg/mL (≈ 0.662 µM) | MIC Enterococcus faecalis (GC 2242) (Enterococcus sp.; strain GC 2242): 8 µg/mL (≈ 5.29 µM) | MIC Enterococcus faecalis (GC 2691) (Enterococcus sp.; strain GC 2691): 8 µg/mL (≈ 5.29 µM) | MIC Enterococcus faecalis (GC 3059) (Enterococcus sp.; strain GC 3059): 8 µg/mL (≈ 5.29 µM) | MIC Coagulase Negative Staphylococcus (GC 4547) (Staphylococcus sp.): 4 µg/mL (≈ 2.65 µM) | MIC Coagulase Negative Staphylococcus (GC 4548) (Staphylococcus sp.): 4 µg/mL (≈ 2.65 µM) | MIC Coagulase Negative Staphylococcus (GC 4549) (Staphylococcus sp.): 4 µg/mL (≈ 2.65 µM) | MIC Coagulase Negative Staphylococcus (GC 4551) (Staphylococcus sp.): 4 µg/mL (≈ 2.65 µM) | MIC Coagulase Negative Staphylococcus (GC 6257) (Staphylococcus sp.): 2 µg/mL (≈ 1.32 µM) | MIC Staphylococcus aureus-SMITH (GC 4543) (Staphylococcus sp.): 4 µg/mL (≈ 2.65 µM) | MIC Staphylococcus aureus (ATCC 29213) (Staphylococcus sp.; strain ATCC 29213): 8 µg/mL (≈ 5.29 µM) | MIC Staphylococcus aureus (GC 1131) (Staphylococcus sp.; strain GC 1131): 8 µg/mL (≈ 5.29 µM) | MIC Staphylococcus aureus (GC 3051) (Staphylococcus sp.; strain GC 3051): 8 µg/mL (≈ 5.29 µM) | MIC Staphylococcus aureus (GC 3053) (Staphylococcus sp.; strain GC 3053): 8 µg/mL (≈ 5.29 µM) | MIC Staphylococcus aureus (GC 4541) (Staphylococcus sp.; strain GC 4541): 4 µg/mL (≈ 2.65 µM) | MIC Staphylococcus aureus (GC 4542) (Staphylococcus sp.; strain GC 4542): 8 µg/mL (≈ 5.29 µM) | MIC Staphylococcus aureus-SMITH (GC 4543) (Staphylococcus sp.; strain GC 4543): 4 µg/mL (≈ 2.65 µM) | MIC Staphylococcus aureus (GC 4544) (Staphylococcus sp.; strain GC 4544): 8 µg/mL (≈ 5.29 µM) | MIC Staphylococcus aureus (GC 4545) (Staphylococcus sp.; strain GC 4545): 8 µg/mL (≈ 5.29 µM) | MIC Coagulase Negative Staphylococcus (GC 4547) (Staphylococcus sp.; strain GC 4547): 4 µg/mL (≈ 2.65 µM) | MIC Coagulase Negative Staphylococcus (GC 4548) (Staphylococcus sp.; strain GC 4548): 4 µg/mL (≈ 2.65 µM) | MIC Coagulase Negative Staphylococcus (GC 4549) (Staphylococcus sp.; strain GC 4549): 4 µg/mL (≈ 2.65 µM) | MIC Coagulase Negative Staphylococcus (GC 4551) (Staphylococcus sp.; strain GC 4551): 4 µg/mL (≈ 2.65 µM) | MIC Coagulase Negative Staphylococcus (GC 6257) (Staphylococcus sp.; strain GC 6257): 2 µg/mL (≈ 1.32 µM) | MIC Streptococcus agalactiae (GC 4564) (Streptococcus sp.): 1 µg/mL (≈ 0.662 µM) | MIC Streptococcus pneumoniae (ATCC 6301) (Streptococcus sp.): 1 µg/mL (≈ 0.662 µM) | MIC Streptococcus pneumoniae (GC 1894) (Streptococcus sp.): 0.12 µg/mL (≈ 0.0794 µM) | MIC Streptococcus pneumoniae (GC 4565) (Streptococcus sp.): 1 µg/mL (≈ 0.662 µM) | MIC Streptococcus pyogenes (GC 4563) (Streptococcus sp.): 0.5 µg/mL (≈ 0.331 µM) | MIC Streptococcus pneumoniae (ATCC 6301) (Streptococcus sp.; strain ATCC 6301): 1 µg/mL (≈ 0.662 µM) | MIC Streptococcus pneumoniae (GC 1894) (Streptococcus sp.; strain GC 1894): 0.12 µg/mL (≈ 0.0794 µM) | MIC Streptococcus pyogenes (GC 4563) (Streptococcus sp.; strain GC 4563): 0.5 µg/mL (≈ 0.331 µM) | MIC Streptococcus agalactiae (GC 4564) (Streptococcus sp.; strain GC 4564): 1 µg/mL (≈ 0.662 µM) | MIC Streptococcus pneumoniae (GC 4565) (Streptococcus sp.; strain GC 4565): 1 µg/mL (≈ 0.662 µM) | MIC Escherichia coli (ATCC 25922) (Escherichia coli): >64 µg/mL | MIC Escherichia coli (GC 4559) (Escherichia coli): 64 µg/mL (≈ 42.3 µM) | MIC Escherichia coli (GC 4560) (Escherichia coli): 4 µg/mL (≈ 2.65 µM)
Compound: CCCCCCN=C1NCC(C(O)C2NC(=O)C(C(O)C3CNC(=N)N3)NC(=O)C(Cc3ccc(OC4OC(CO)C(OC5OC6COC7(OC6C(O)C5O)C5CC6CC(C5)CC7C6)C(O)C4O)cc3)NC(=O)C(C(C)c3ccccc3)NC(=O)CNC(=O)C(CO)NC2=O)N1C1OC(CO)C(O)C(O)C1O (centres unmarked) [Example 84]
MIC Staphylococcus haemolyticus (GC 4546) (Staphylococcus sp.): 4 µg/mL (≈ 2.65 µM) | MIC Staphylococcus haemolyticus (GC 4546) (Staphylococcus sp.; strain GC 4546): 4 µg/mL (≈ 2.65 µM)
